25 compounds from ChEMBL document CHEMBL1201862, “PubChem BioAssay data set” (2004) can be followed below.

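Protocol summary: plate cells (96-well), add compound at 5 concentrations, incubate 48 h, interpolate endpoints linearly. Abbreviation: GI50, concentration required for 50% inhibition of growth.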 Active and inactive are the calls of the source. Rule as the data show it: active = GI50 up to about 1.1 µM and inactive = higher. Where only a bound is given, the exact number is not on record here.

Experiment in all cases: NCI-60 cell line screen, 48 h
Assay [1] relates to DLD-1.
For assay [2], the system named is DMS-114.
In assay [3] the test system is DMS-273.
Assay [4] has as its system HOP-18.
Assay [5] concerns KM-20L2.
Assay [6] relates to M19-MEL.
The test system of assay [7] is RXF 631.
Assay [8] concerns SNB-78.
Assay [9] deals with XF498.

Consider `CN(O)C(=S)c1ccccc1`, for which the GI50 is 0.619 µM (active) in assay [1]; 1.18 µM (inactive) in assay [2]; 0.893 µM (active) in assay [3]; > 100 µM (inactive) in assay [4]; 3.24 µM (inactive) in [5]; 1.19 µM (inactive) in assay [6]. The GI50 in assay [7] is 1.48 µM (inactive); in [8], 6.43 µM (inactive).

As for `O=CN/C=C/c1ccccc1`, the GI50 in assay [1], in assay [3], in assay [4], in assay [5], in assay [6] and in [7] was > 100 µM (inactive) each time. In addition, in [8], the GI50 is > 100 µM (inactive).

`COc1cccc2c1C1(O)C2CCCC12OCCCO2` (stereo not given): the GI50 in [1], in assay [2], in assay [3], in [4], in assay [5] and in assay [6] was > 100 µM (inactive) in each case. The GI50 in assay [8] is > 100 µM (inactive).

In the case of `O=c1nc(-c2ccccc2)c2c3c(cccn13)CCC2`, the GI50 in assay [1], in [2], in [3], in assay [6], in [8] and in [9] was > 100 µM (inactive) in each case.

For the compound `Cc1nc(-n2nc(-c3ccccc3)cc2-c2ccccc2)sc1C(/C=C/c1ccc([N+](=O)[O-])cc1)=N/NC(N)=S`, the GI50 in assay [1] was 43 µM (inactive); in assay [2] it was 16.9 µM (inactive); in [5] it was 40.5 µM (inactive); in assay [6] it was 42 µM (inactive); in [8] it was 18.7 µM (inactive).

In the case of `Cc1cccc(/C=N/N=C(\N)NO)n1`, the GI50 in assay [1] was 18.7 µM (inactive); in assay [2], 12.1 µM (inactive); in [3] it was 35.7 µM (inactive); in [6] it was 68.7 µM (inactive); in assay [7] it was > 100 µM (inactive); in [8], > 100 µM (inactive). The GI50 in assay [9] was 39.4 µM (inactive).

Turning to `Nc1ccccc1/C(O)=C1/CCOC1=O`, the GI50 in [1], in assay [2], in assay [6], in assay [8] and in assay [9] was > 100 µM (inactive) throughout.

Regarding `COC(=O)C1Cc2c(n(C)c3ccccc23)C(CCC(=O)O)N1Cc1ccccc1` (stereo not given), the GI50 in [1] was > 100 µM (inactive); in assay [2], 26.7 µM (inactive); in assay [3], 31.6 µM (inactive); in [5], 34.9 µM (inactive); in assay [6], 32.1 µM (inactive); in [7] it was 36.9 µM (inactive). Moreover, the GI50 in assay [8] is 32.8 µM (inactive); in assay [9], 28.1 µM (inactive).

In the case of `O=[N+]([O-])C=C1c2ccccc2-c2ccccc21`, the GI50 in [1] was 2.84 µM (inactive); in [5], 19.1 µM (inactive); in [8], 17.4 µM (inactive).

Consider `COc1ccc(C(O)C(c2ccc(OCc3ccccc3)cc2)c2ccc(OCc3ccccc3)cc2)cc1` (stereo not given), for which the GI50 in assay [1], in assay [2], in assay [3], in assay [5], in assay [6] and in assay [8] was > 100 µM (inactive) throughout. Further, the GI50 in assay [9] was > 100 µM (inactive).

`CCC(C)CN1C(=O)NC(C)(Cc2ccccc2)C1=O` (stereo not given): the GI50 in assay [1], in [2], in [3], in assay [4], in assay [5] and in assay [6] was > 100 µM (inactive) throughout. The GI50 in assay [8] and in assay [9] was > 100 µM (inactive) each time.

In the case of `O=C(CCCC(=O)Nc1ccc(Cl)cc1Cl)CC(=O)c1ccc2ccccc2c1`, the GI50 in [1], in [2], in [3], in assay [4], in assay [5] and in assay [6] was > 100 µM (inactive) in each case. For the same compound, the GI50 in [7] and in assay [8] was > 100 µM (inactive) each time.

In the case of `Oc1ncnc2c1nnn2CCCn1nnc2c(O)ncnc21`, the GI50 in assay [1], in assay [2], in assay [3], in [4], in [5] and in [6] was > 100 µM (inactive) throughout. Further, the GI50 in assay [8] and in [9] was > 100 µM (inactive) each time.

For `O=C(CCCCCCCCCCc1ccccc1)C1=C(O)CCCC1=O`, the GI50 in [1] is 41.1 µM (inactive); in assay [2] it was 18.6 µM (inactive); in [3], 20.5 µM (inactive); in assay [4], 38.6 µM (inactive); in [5], 32.4 µM (inactive); in assay [6], 32.7 µM (inactive). Also, the results for the GI50 in assay [8] and in [9] were 52.4 µM (inactive) and 42.5 µM (inactive), respectively.

For `O=C(O/N=C1/CCC/C1=C\c1ccccc1)c1ccc(Cl)cc1`, the GI50 in [1] is 23.9 µM (inactive); in assay [3] it was > 76.9 µM (inactive); in assay [4], > 100 µM (inactive); in assay [5] it was > 100 µM (inactive); in assay [6], > 100 µM (inactive); in assay [8], 32.8 µM (inactive). In assay [9], the GI50 was 61.5 µM (inactive).

On to `CN1c2ccccc2NC(CC(=O)O)C2CC=CN21` (stereo not given), for which the GI50 in assay [2] is > 100 µM (inactive); in assay [3], > 100 µM (inactive); in assay [4] it was 0.117 µM (active); in assay [5], > 100 µM (inactive); in [6], > 100 µM (inactive); in assay [7], > 100 µM (inactive). The GI50 in [9] was > 100 µM (inactive).

As to `Cc1cc(-c2ccccc2)nc(Nc2cc3ccccc3[nH]2)n1`, the GI50 in assay [1], in assay [2], in [5], in assay [6], in assay [8] and in assay [9] was > 100 µM (inactive) each time.

As for `COc1cc(C(C)O)c[n+](Cc2ccccc2)c1` (stereo not given), the GI50 in assay [1], in assay [2], in assay [3], in assay [4], in assay [5] and in assay [6] was > 100 µM (inactive) throughout. Besides, the GI50 was > 100 µM (inactive) in assay [7], > 100 µM (inactive) in [8] and > 31.6 µM (inactive) in [9].

With `O=C(CC(=O)N1N=C(c2ccccc2)C(/N=N/c2ccc(C(=O)O)cc2)C1=O)Nc1ccc(F)cc1` (stereo not given), the GI50 was 20.9 µM (inactive) in assay [1]; 34.5 µM (inactive) in assay [2]; 27.2 µM (inactive) in [3]; 46.5 µM (inactive) in assay [5]; 74 µM (inactive) in [6]; 36.4 µM (inactive) in assay [7]. For the same compound, the figures for the GI50 in assay [8] and in assay [9] were 42.8 µM (inactive) and 20.4 µM (inactive), respectively.

`CN(/N=C\c1ccnc2ccccc12)c1ccc([N+](=O)[O-])cc1`: the GI50 in assay [3] was 42.5 µM (inactive); in [5], > 100 µM (inactive); in [6], 65.3 µM (inactive); in [7], > 100 µM (inactive); in assay [8], > 100 µM (inactive); in assay [9], > 100 µM (inactive).

Turning to `O=[N+]([O-])c1nccn1COCCO`, the GI50 in [1] was > 100 µM (inactive); in assay [2], > 100 µM (inactive); in assay [3], > 100 µM (inactive); in assay [4], 28.1 µM (inactive); in assay [5], > 100 µM (inactive); in assay [7] it was > 100 µM (inactive). Moreover, the GI50 in assay [8] and in assay [9] was > 100 µM (inactive) throughout.

In the case of `Cc1cccc(C(C)(C)C)c1NC(=O)CC1C(=O)Nc2ccccc2[S+]1[O-]` (stereo not given), the GI50 in assay [1] is 44.9 µM (inactive); in [3] it was 38.1 µM (inactive); in [5] it was 57.5 µM (inactive); in assay [7], 70.3 µM (inactive); in assay [8], 54.6 µM (inactive); in assay [9], 68.9 µM (inactive).

For `[N-]=[N+]=Nc1ccccc1-[n+]1noc([O-])c1Br`, the GI50 in assay [1], in assay [2], in [4], in assay [5] and in assay [6] was > 100 µM (inactive) each time.

As to `COc1ccc(Cc2cc3c(cc2OCC(=O)O)OCO3)cc1`, the GI50 in assay [1], in [2], in assay [5], in [6] and in assay [7] was > 100 µM (inactive) throughout.

As to `CCCCSC(=CC(=O)c1cccc(C(=O)C=C(SCCCC)SCCCC)n1)SCCCC`, the GI50 in assay [1], in [2], in assay [3], in assay [4], in [5] and in assay [6] was > 100 µM (inactive) throughout. In addition, the GI50 in [8] and in assay [9] was > 100 µM (inactive) in each case.
